Assay results as given in publication PMC10892719 (Pharmaceutics, 2024).

Assays:
[1] = target: T1, equine butyrylcholinesterase (eqBChE) (Equus caballus, UniProt P81908); test: BChE inhibition, adapted Ellman method; format: biochemical; details: for SI (selectivity index): IC50 (AChE)/IC50 (BChE); for IC50: eqBChE, mean of two independent experiments ± SD, read-out: BChE Inhib IC50
T1 construct: purchased Sigma-Aldrich (Steinheim, Germany)
Experimental: (§1) The enzyme inhibition of electric eel acetylcholinesterase (eeAChE) and equine butyrylcholinesterase (eqBChE) by our compounds was evaluated through an adaptation of Elmman´s method using reagents from Sigma-Aldrich (Steinheim, Germany). Stock solutions of each compound (1 mg) in MeOH (1 mL) were prepared and then working solutions for each ligand were obtained by the corresponding dilution of the stock solutions. A control measurement with 5 replicates (without ligand) and a calibration curve of 5 points with 3 replicates per point was performed. The preparation of each solution involved fixed volumes of 4-(2-hydroxyethyl)-1-piperazine-ethanesulfonic acid (HEPES) and cholinesterase (eeAChE or eqBChE) with different volumes of ligand solution, and it was left to rest for 15 min immediately after adding the cholinesterase. A blank solution containing HEPES and MeOH was also prepared at the same time. […] The slope for each calibration point (absorbance versus reaction time) was determined and the inhibition for each compound was calculated by using the following equation: %Inhibition=100−(vi/v0×100) where vi is the reaction rate (slope) for each point of the calibrate with ligand and v0 is the initial reaction rate (slope) for the control point (without ligand). […] Experiments were performed twice for each compound.

SH-SY5Y cells [2] = test: Neuroprotection against Aβ1-42-induced toxicity, MTT; format: cell-based, human; details: Aβ1-42 1 µM, 24 h, optimized concentration of each compound
Experimental: (§2) Cell viability, following treatment with the compounds, was determined using the colorimetric MTT (3-(4,5-dimethylthiazol-2-yl)-2,5-diphenyltetrazolium bromide) assay. The tested compounds (5a1-3, 5b1-3, 5c1-3) were dissolved in DMSO to produce stock solutions of 25 mM and stored at −20 °C. A concentration screening was performed for 0.5 µM to 20 µM final concentrations to choose the highest nontoxic concentration. SH-SY5Y human neuroblastoma cell line (ATCC-CRL-2266) was cultured in Dulbecco’s modified Eagle’s medium (DMEM) (Gibco-Invitrogen, Life Technologies Ltd., Waltham, MA, USA) with heat-inactivated fetal calf serum (10%), penicillin (50 U/mL) and streptomycin (50 µg/mL) at 37 °C with 5% CO2. Cells were plated at 0.15 × 10^6 cells/mL one day prior to the start of the experiment. The cells were then incubated with the appropriate concentration of the compounds for 24 h. After the incubation period, the cells were washed once with PBS and incubated with 200 µL MTT (0.5 mg/mL) for 2 h at 37 °C with 5% CO2. During this period, cellular dehydrogenase successfully metabolized MTT into formazan, which was then solubilized using 200 µL of 0.04 M HCl/isopropanol. Absorbance was measured at 570 nm.
To test whether the compounds have a protective effect against toxicity induced by Aβ1-42 or iron/ascorbate, the cells were pre-incubated for 1 h with each compound, followed by the addition of Aβ1-42 or iron/ascorbate and incubation for an additional 24 h. Aβ1-42 (Bachem, Torrance, CA, USA) was prepared in sterile water to produce a stock solution of 443 µM and added to the cells at a final concentration of 1 µM. Ferrous sulfate and L-ascorbic acid (Sigma Chemical Co, St. Louis, MO, USA), prepared in sterile water, were added to the medium together at a final concentration of 5 mM and 2.5 mM, respectively. For this assay, the optimal concentration of each compound was used to prevent cellular demise induced by Aβ1-42 or iron/ascorbate. Compound 5a1 was added to the medium at a 1 µM final concentration; compounds 5a2, 5a3, 5b1, 5b2 and 5c2 were added to the medium at a 2.5 µM final concentration; compounds 5c1 and 5c3 were added to the medium at a 5 µM final concentration; and compound 5b3 was added to the medium at a 10 µM final concentration. […] Controls were employed for each plate using untreated cells and Aβ1-42 or iron/ascorbate only. Cell reduction ability was normalized to the untreated condition. All data are expressed as mean ± SEM of at least three independent experiments performed in duplicate. Statistical analyses were performed for normality assessment using Shapiro–Wilk’s test followed by the Kruskal–Wallis test considering that normality was not verified. Post hoc analysis was performed using uncorrected Dunn’s test. A p value < 0.05 was considered statistically significant.
Figure 4 Neuroprotective effect of RIV-IND compounds against cellular toxicity induced by Aβ1-42 measured by MTT reduction ability on SH-SY5Y cells pretreated with […] for one hour, followed by a 24 h incubation with the optimized concentration of each compound. Results are expressed relatively to untreated cells, with the mean ± standard error of the mean (SEM) derived from three to seven independent experiments. * p < 0.05; ** p < 0.01; *** p < 0.001; **** p < 0.0001 compared to untreated cells. # p < 0.05 compared to Aβ1-42-treated cells. (The dot line indicates the decrease in cellular viability induced by Aβ).

SH-SY5Y cells [3] = test: Neuroprotection against iron/ascorbate-induced toxicity, MTT; format: cell-based, human; details: ferrous sulfate 5 mM and L-ascorbic acid 2.5 mM, 24 h, optimized concentration of each compound
Experimental: as §2
To test whether the compounds have a protective effect against toxicity induced by Aβ1-42 or iron/ascorbate, the cells were pre-incubated for 1 h with each compound, followed by the addition of Aβ1-42 or iron/ascorbate and incubation for an additional 24 h. Aβ1-42 (Bachem, Torrance, CA, USA) was prepared in sterile water to produce a stock solution of 443 µM and added to the cells at a final concentration of 1 µM. […] All data are expressed as mean ± SEM of at least three independent experiments performed in duplicate. […]
Figure 5 Neuroprotective effect of RIV-IND compounds against cellular toxicity induced by iron/ascorbate (Fe/Asc) measured by MTT reduction ability on SH-SY5Y cells pretreated with iron/ascorbate for one hour, followed by a 24 h incubation with the optimized concentration of each compound. […]

[4] = target: T2, electric eel acetylcholinesterase (eeAChE) (Electrophorus electricus, UniProt O42275); test: AChE inhibition, adapted Ellman method; format: biochemical; details: mean of two independent experiments ± SD, read-out: AChE Inhib IC50
T2 construct: purchased Sigma-Aldrich (Steinheim, Germany)
T2 sequence (O42275 24-633): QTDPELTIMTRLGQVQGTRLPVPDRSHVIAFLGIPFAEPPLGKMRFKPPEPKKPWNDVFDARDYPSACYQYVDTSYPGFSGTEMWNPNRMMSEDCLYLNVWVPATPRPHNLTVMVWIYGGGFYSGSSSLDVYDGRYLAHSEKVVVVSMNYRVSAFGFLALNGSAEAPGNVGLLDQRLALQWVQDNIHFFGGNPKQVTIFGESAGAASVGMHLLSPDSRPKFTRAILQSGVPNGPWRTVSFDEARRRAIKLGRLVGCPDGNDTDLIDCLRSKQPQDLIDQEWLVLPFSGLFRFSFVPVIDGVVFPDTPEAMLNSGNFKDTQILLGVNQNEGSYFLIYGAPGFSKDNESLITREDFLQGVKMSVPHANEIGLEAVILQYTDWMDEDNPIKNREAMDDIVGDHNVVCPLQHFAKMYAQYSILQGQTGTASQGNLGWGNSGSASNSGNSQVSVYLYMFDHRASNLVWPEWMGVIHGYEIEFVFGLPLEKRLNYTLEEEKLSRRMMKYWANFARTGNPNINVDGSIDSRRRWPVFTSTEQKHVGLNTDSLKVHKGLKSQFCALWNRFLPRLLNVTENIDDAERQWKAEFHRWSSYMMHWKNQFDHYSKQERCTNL
Experimental: as §1

[5] = DPPH free radical scavenging (antioxidant) assay; details: read-out: Antioxidant Activity EC50; DPPH method, mean of three independent experiments
Experimental: The radical scavenging activity (antioxidant capacity) of the herein-developed RIV-IND hybrids was determined by the DPPH method [33]. Working solutions of the compounds in 10% DMSO/MeOH (, HoneywellSeelze, Germany) medium were used to prepare 5 methanolic solutions (5 points, 3 replicates) containing DPPH (Sigma-Aldrich, Steinheim, Germany) and different concentrations of compound up to 3.5 mL total volume. […] The respective antioxidant activity (%AA) was calculated using the following equation: %AA=ADPPH−Aligand/ADPPH×100
The reported results were obtained as the mean values of three independent experiments.
The new RIV-IND compounds were also screened for their radical scavenging activity (EC50), according to the 2,2-diphenyl-1-picrylhydrazyl (DPPH) free radical method.

T1 sequence (P81908 whole entry): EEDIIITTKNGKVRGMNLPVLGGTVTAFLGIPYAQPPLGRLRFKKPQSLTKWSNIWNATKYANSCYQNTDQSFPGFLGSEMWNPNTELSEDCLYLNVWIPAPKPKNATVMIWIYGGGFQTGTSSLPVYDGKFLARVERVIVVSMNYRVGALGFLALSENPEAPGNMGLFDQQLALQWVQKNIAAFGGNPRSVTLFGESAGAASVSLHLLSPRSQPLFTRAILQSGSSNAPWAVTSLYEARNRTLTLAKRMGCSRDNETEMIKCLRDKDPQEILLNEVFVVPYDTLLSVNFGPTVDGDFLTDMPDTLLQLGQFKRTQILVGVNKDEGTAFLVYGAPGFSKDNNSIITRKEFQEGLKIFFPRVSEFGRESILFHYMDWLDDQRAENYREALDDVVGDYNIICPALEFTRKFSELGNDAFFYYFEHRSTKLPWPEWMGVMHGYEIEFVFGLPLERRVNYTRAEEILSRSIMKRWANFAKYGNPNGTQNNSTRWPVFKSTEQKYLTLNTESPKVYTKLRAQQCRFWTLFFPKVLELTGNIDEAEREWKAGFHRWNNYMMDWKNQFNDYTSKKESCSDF

Row | SMILES | SI (selectivity index) [1] | IC50 [1] | neuroprotective effect against toxicity induced by Aβ1-42 (SH-SY5Y cells [2]) | neuroprotective effect against toxicity induced by iron/ascorbate (SH-SY5Y cells [3]) | IC50 [4] | EC50 [5]
1 | CCN(C)C(=O)Oc1cccc(NC(=O)c2cc3cccc(O)c3[nH]2)c1 [Compound 5a3, 3-(7-Hydroxy-1H-indole-2-carboxamido)phenyl ethyl(methyl)carbamate] | 1.05 | 10.4 ± 0.4 µM | also present neuroprotection | also present a neuroprotective effect | 10.9 ± 0.1 µM | 14.5 ± 0.5 µM
2 | CCN(C)C(=O)Oc1cccc(CNC(=O)c2cc3ccccc3[nH]2)c1 [Compound 5b1, 3-((1H-indole-2-carboxamido)methyl)phenyl ethylmethylcarbamate] | 9.4 | 8.3 ± 0.1 µM | able to rescue Aβ1-42-induced toxicity to levels that were not significantly different from untreated cells | also present a neuroprotective effect | 78.4 ± 0.8 µM | > 2000 µM
